Measurements taken from patent publication US6737383B1, “Herbicidal oxadiazolidines” (priority 1999, dated 2004).

Experiments:
blackgrass = test: Test B pre/postemergence blackgrass; type: in vivo, Alopecurus myosuroides
Method in brief: (§1)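 Herbicidal effect was estimated by eye on a ten-point control scale after plants spent twelve to sixteen days in a greenhouse following soil or foliar treatment. Foliar sprays targeted plants at one to four leaves; all doses were formulated in a non-phytotoxic solvent with surfactant.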

surinam grass = test: Test B pre/postemergence surinam grass; type: in vivo, Brachiaria decumbens
Method in brief: as §1

cocklebur = test: Test B pre/postemergence cocklebur; type: in vivo, Xanthium strumarium
Method in brief: as §1

corn = test: Test B pre/postemergence corn; type: in vivo, Zea mays
Method in brief: as §1

crabgrass = test: Test B pre/postemergence crabgrass; type: in vivo, Digitaria sanguinalis
Method in brief: as §1

giant foxtail = test: Test B pre/postemergence giant foxtail; type: in vivo, Setaria faberii
Method in brief: as §1

morningglory = test: Test B pre/postemergence morningglory; type: in vivo, Ipomoea hederacea
Method in brief: as §1

pigweed = test: Test B pre/postemergence pigweed; type: in vivo, Amaranthus retroflexus
Method in brief: as §1

rape = test: Test B pre/postemergence rape; type: in vivo, Brassica napus
Method in brief: as §1

sugar beet = test: Test B pre/postemergence sugar beet; type: in vivo, Beta vulgaris
Method in brief: as §1

velvetleaf = test: Test B pre/postemergence velvetleaf; type: in vivo, Abutilon theophrasti
Method in brief: as §1

wheat = test: Test B pre/postemergence wheat; type: in vivo, Triticum aestivum
Method in brief: as §1

purple nutsedge = test: Test B pre/postemergence purple nutsedge; type: in vivo, Cyperus rotundus; details: Postemergence
Method in brief: as §1

rice = test: Test B flood test rice; type: in vivo, Oryza sativa
Method in brief: (§2)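 Read-out is a visual response score from 0 (no effect) to 10 (complete control), assigned by comparison with untreated controls. Treatment was applied at the 2-leaf stage, and plants stayed in the greenhouse for twelve to sixteen days before scoring.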

smallflower flatsedge = test: Test B flood test smallflower flatsedge; type: in vivo, Cyperus difformis
Method in brief: as §2

duck salad = test: Test B flood test duck salad; type: in vivo, Heteranthera limosa
Method in brief: as §2

[1] = Preemergence, Rate 62 g/ha, scale of 0 to 10 where 0 is no effect and 10 is complete control
[2] = Preemergence, Rate 250 g/ha, scale of 0 to 10 where 0 is no effect and 10 is complete control
[3] = Preemergence, Rate 500 g/ha, scale of 0 to 10 where 0 is no effect and 10 is complete control
[4] = Rate 62 g/ha, Postemergence, scale of 0 to 10 where 0 is no effect and 10 is complete control
[5] = Rate 125 g/ha, Postemergence, scale 0 to 10
[6] = Rate 125 g/ha, Preemergence, scale of 0 to 10 where 0 is no effect and 10 is complete control
[7] = Rate 500 g/ha, Postemergence, scale 0 to 10, 0 no effect, 10 complete control
[8] = Rate 62 g/ha, headed Pre-emergence (flood test species), scale 0 to 10 (0 no effect, 10 complete control)
[9] = Rate 125 g/ha, Pre-emergence, flood test species, scale 0 to 10 where 0 is no effect and 10 is complete control
[10] = Rate 250 g/ha, Pre-emergence, flood-test species, scale 0 to 10, 0 is no effect, 10 is complete control
[11] = Rate 500 g/ha, Pre-emergence, flood test species, scale 0 to 10 (0 no effect, 10 complete control)

SMILES: [2H]C([2H])([2H])n1c(=O)on(C(=O)N(c2ccc(F)cc2)C(C)C)c1=O [Compound 245]
- Blackgrass plant response rating (blackgrass; [1]): 10
- Blackgrass plant response rating (blackgrass; [2]): 10
- Plant response rating, Blackgrass (blackgrass; [3]): 10
- Blackgrass plant response rating (blackgrass; [4]): 4
- Blackgrass plant response rating (blackgrass; [5]): 7
- Blackgrass plant response rating (blackgrass; [6]): 10
- Plant response rating (0 to 10; 0 is no effect, 10 is complete control), Blackgrass (blackgrass; Rate 250 g/ha, Postemergence): 7
- Blackgrass plant response rating (blackgrass; [7]): 8
- B. signalgrass plant response rating (surinam grass; [1]): 3
- B. signalgrass plant response rating (surinam grass; [2]): 8
- Plant response rating, B. signalgrass (surinam grass; [3]): 10
- B. signalgrass plant response rating (surinam grass; [4]): 1
- B. signalgrass plant response rating (surinam grass; Rate 125 g/ha, Postemergence, scale 0 (no effect) to 10 (complete control)): 4
- B. signalgrass plant response rating (surinam grass; [6]): 7
- Plant response rating (0 to 10; 0 is no effect, 10 is complete control), B. signalgrass (surinam grass; Rate 250 g/ha, Postemergence): 6
- B. signalgrass plant response rating (surinam grass; [7]): 8
- Cocklebur plant response rating (cocklebur; [1]): 0
- Cocklebur plant response rating (cocklebur; [2]): 2
- Plant response rating, Cocklebur (cocklebur; [3]): 6
- Cocklebur plant response rating (cocklebur; [4]): 0
- Cocklebur plant response rating (cocklebur; [5]): 0
- Cocklebur plant response rating (cocklebur; [6]): 2
- Plant response rating (0 to 10; 0 is no effect, 10 is complete control), Cocklebur (cocklebur; Rate 250 g/ha, Postemergence): 0
- Cocklebur plant response rating (cocklebur; [7]): 1
- Corn plant response rating (corn; [1]): 3
- Corn plant response rating (corn; [2]): 7
- Plant response rating, Corn (corn; [3]): 8
- Corn plant response rating (corn; [4]): 0
- Corn plant response rating (corn; [5]): 4
- Corn plant response rating (corn; [6]): 5
- Plant response rating (0 to 10; 0 is no effect, 10 is complete control), Corn (corn; Rate 250 g/ha, Postemergence): 5
- Corn plant response rating (corn; [7]): 7
- Crabgrass plant response rating (crabgrass; [1]): 9
- Crabgrass plant response rating (crabgrass; [2]): 9
- Plant response rating, Crabgrass (crabgrass; [3]): 10
- Crabgrass plant response rating (crabgrass; [4]): 2
- Crabgrass plant response rating (crabgrass; [6]): 9
- Plant response rating (0 to 10; 0 is no effect, 10 is complete control), Crabgrass (crabgrass; Rate 250 g/ha, Postemergence): 8
- Crabgrass plant response rating (crabgrass; [7]): 8
- Giant foxtail plant response rating (giant foxtail; [1]): 9
- Giant foxtail plant response rating (giant foxtail; [2]): 10
- Plant response rating, Giant foxtail (giant foxtail; [3]): 10
- Giant foxtail plant response rating (giant foxtail; [4]): 5
- Giant foxtail plant response rating (giant foxtail; [6]): 9
- Plant response rating (0 to 10; 0 is no effect, 10 is complete control), Giant foxtail (giant foxtail; Rate 250 g/ha, Postemergence): 8
- Giant foxtail plant response rating (giant foxtail; [7]): 8
- Morningglory plant response rating (morningglory; [1]): 0
- Morningglory plant response rating (morningglory; [2]): 6
- Plant response rating, Morningglory (morningglory; [3]): 6
- Morningglory plant response rating (morningglory; [4]): 5
- Morningglory plant response rating (morningglory; [6]): 1
- Plant response rating (0 to 10; 0 is no effect, 10 is complete control), Morningglory (morningglory; Rate 250 g/ha, Postemergence): 9
- Morningglory plant response rating (morningglory; [7]): 9
- Redroot pigweed plant response rating (pigweed; [1]): 8
- Redroot pigweed plant response rating (pigweed; [2]): 10
- Plant response rating, Redroot pigweed (pigweed; [3]): 10
- Redroot pigweed plant response rating (pigweed; [4]): 3
- Redroot pigweed plant response rating (pigweed; [6]): 10
- Plant response rating (0 to 10; 0 is no effect, 10 is complete control), Redroot pigweed (pigweed; Rate 250 g/ha, Postemergence): 9
- Redroot pigweed plant response rating (pigweed; [7]): 9
- Rape plant response rating (rape; [1]): 3
- Rape plant response rating (rape; [2]): 10
- Plant response rating, Rape (rape; [3]): 10
- Rape plant response rating (rape; [4]): 0
- Rape plant response rating (rape; [6]): 4
- Plant response rating (0 to 10; 0 is no effect, 10 is complete control), Rape (rape; Rate 250 g/ha, Postemergence): 2
- Rape plant response rating (rape; [7]): 5
- Sugarbeets plant response rating (sugar beet; [1]): 3
- Sugarbeets plant response rating (sugar beet; [2]): 10
- Plant response rating, Sugarbeets (sugar beet; [3]): 10
- Sugarbeets plant response rating (sugar beet; [4]): 1
- Sugarbeets plant response rating (sugar beet; [6]): 8
- Sugarbeets plant response rating (sugar beet; [7]): 7
- Velvetleaf plant response rating (velvetleaf; [1]): 7
- Velvetleaf plant response rating (velvetleaf; [2]): 10
- Plant response rating, Velvetleaf (velvetleaf; [3]): 10
- Velvetleaf plant response rating (velvetleaf; [4]): 3
- Velvetleaf plant response rating (velvetleaf; [6]): 7
- Velvetleaf plant response rating (velvetleaf; [7]): 7
- Wheat plant response rating (wheat; [1]): 6
- Wheat plant response rating (wheat; [2]): 7
- Plant response rating, Wheat (wheat; [3]): 9
- Wheat plant response rating (wheat; [4]): 4
- Wheat plant response rating (wheat; [6]): 6
- Wheat plant response rating (wheat; [7]): 8
- Nutsedge plant response rating (purple nutsedge; Rate 62 g/ha, scale of 0 to 10 where 0 is no effect and 10 is complete control): 0
- Plant response rating (0 to 10; 0 is no effect, 10 is complete control), Nutsedge (purple nutsedge; Rate 250 g/ha): 0
- Nutsedge plant response rating (purple nutsedge; Rate 500 g/ha, scale 0 to 10, 0 no effect, 10 complete control): 0
- Rice plant response rating (rice; [8]): 0
- Rice plant response rating (rice; [9]): 0
- Rice plant response rating (rice; [10]): 0
- Rice plant response rating (rice; [11]): 0
- S. Flatsedge plant response rating (smallflower flatsedge; [8]): 0
- S. Flatsedge plant response rating (smallflower flatsedge; [9]): 0
- S. Flatsedge plant response rating (smallflower flatsedge; [10]): 0
- S. Flatsedge plant response rating (smallflower flatsedge; [11]): 0
- Ducksalad plant response rating (duck salad; [8]): 0
- Ducksalad plant response rating (duck salad; [9]): 0
- Ducksalad plant response rating (duck salad; [10]): 0
- Ducksalad plant response rating (duck salad; [11]): 0
